We go through 1 compound from patent CN107801692A, “一种氯胺酮诱导精神分裂症动物模型及其机制研究” (Kunming Medical University, priority 2017, dated 2018).

The subject of assay [1] is mice (小鼠). Nature of the assay: Suspension test (悬吊实验), limb weakness. Format: in vivo, Kunming mouse. The note with it: i.p., single administration (day 1).
In assay [2] the test system is mice (小鼠). Nature of the assay: Pole climbing test (爬杆实验), ataxia. The note with it: medium and large dose (50, 100 mg/kg), i.p., once daily for 7 days; P<0.01. Format: in vivo, Kunming mouse.
Assay [3] has as its system NOX4 protein (NOX4蛋白). In words: NOX4 protein expression (immunohistochemistry). Format: in vivo, Kunming mouse. The note with it: i.p.
Assay [4] has as its system mice (小鼠). In words: Y-maze test (Y型迷宫实验), learning and memory. Format: in vivo, Kunming mouse. The note with it: medium and large dose (50, 100 mg/kg), i.p., once daily for 7 days; P<0.01.
The subject of assay [5] is SOD. In words: Brain tissue SOD determination. Format: in vivo, Kunming mouse. To be noted: 25, 50, 100 mg/kg, i.p., once daily for 7 days; with increasing dose.
Assay [6] deals with mice (小鼠). Nature of the assay: Schizophrenia-like symptoms overall (behavioural tests together). Format: in vivo, Kunming mouse. The note with it: i.p.
Assay [7] concerns SOD. Nature of the assay: Serum SOD determination. Format: in vivo, Kunming mouse. To be noted: 25, 50, 100 mg/kg, i.p., once daily for 7 days; with increasing dose.
The subject of assay [8] is depressed patients (抑郁患者). The note with it: 0.5 mg/kg; Liebrenz et al.; cited from earlier work.
Assay [9] concerns mice (小鼠). In words: Stereotyped behaviour (刻板行为). Format: in vivo, Kunming mouse. To be noted: medium and large dose (50, 100 mg/kg), i.p., P<0.01.
Assay [10] deals with rats (大鼠). The note with it: repeated injection; Trujillo et al.; cited from earlier work.
The subject of assay [11] is mice (小鼠). In words: Open field test (旷场实验), hyperlocomotion. Format: in vivo, Kunming mouse. The note with it: medium and large dose (50, 100 mg/kg), i.p., single administration (day 1); P<0.01.
[12] abbreviates: 25, 50, 100 mg/kg, single or repeated administration.

`CNC1(c2ccccc2Cl)CCCCC1=O` (stereo not drawn) [氯胺酮]: the limb weakness result is recorded as “四肢无力” in [1] (medium and large dose (50, 100 mg/kg), P<0.01); “产生四肢无力” in [1] (small dose 25 mg/kg, P<0.05). For the same compound, in [2], the ataxia entry is listed as “共济失调现象”. Moreover, the “NOX4 protein expression, dose dependence” value in [3] (25, 50, 100 mg/kg) is listed as “有一定的剂量依赖趋势”. In addition, in assay [3] (25, 50, 100 mg/kg, P<0.01), the “NOX4 protein expression, pairwise comparison among dose groups” value is listed as “具有显著性差异”. In addition, in assay [3] (different doses of ketamine (25, 50, 100 mg/kg), P<0.01), the NOX4 protein expression entry is “显著增加”. Besides, the “learning and memory ability” value in assay [4] is “学习记忆能力下降”. For the same compound, the “brain tissue SOD activity, dose trend” value in assay [5] is on record as “逐渐降低”. For the same compound, the schizophrenia-like symptoms entry is recorded as “均可诱导小鼠产生类似精神分裂症的症状” in assay [6] (setting [12]) and “更为明显” in [6] (large dose 100 mg/kg). For the same compound, the “schizophrenia-like symptoms, dose dependence” value in assay [6] (setting [12]) is given as “具有一定的剂量依赖趋势”. Besides, in assay [6] (after 7 days of repeated administration), the “stability of part of the symptoms” value is “部分症状具有更好的稳定性”. Also, in assay [7], the “serum SOD activity, dose trend” value is “逐渐降低”. Also, in assay [8], the “symptoms of depressed patients” value is listed as “显著改善”. Moreover, the values for the stereotyped behaviour result in assay [9] (once daily for 7 days) and in [9] (single administration (day 1)) were “刻板行为增加” and “刻板行为”, respectively. Further, the activity of rats result in [10] is reported as “活动增多”. The hyperlocomotion result in [11] is recorded as “明显的运动亢进”.
